The source of these data is patent US20150259344A1, “IMIDAZOLE DERIVATIVE” (DAINIPPON SUMITOMO PHARMA CO., LTD., priority 2012, published 2015).

This assay addresses T1, human α7 nAChR (Homo sapiens, UniProt P36544).
T1 construct: expressed in transfected cells
Nature of the assay: Evaluation of PAM activity with human α7 nACh receptor stably expressing cells (aequorin luminescence, FDSS7000). Conditions: for activity at 1 µM: 1 μM test compound (values marked *, footnote of Table 25), read-out: α7PAM (%) @1 μM; for activity at 1 µM / activity at 10 µM: ACh at EC20, ratio of RLU (Max-Min) to control wells; for activity at 10 µM: 10 μM test compound, read-out: α7PAM (%) @10 μM; for PAM activity for α7 nAChR (in words): comparison across Tables 18 to 25. In kind it is cell-based. The procedure, abridged:
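Human α7 nAChR stable cells loaded with 4 μM Viviren (final) for 4 h at room temperature in the dark. Compounds in Hanks/20 mM HEPES/0.2% BSA were added and luminescence recorded on FDSS7000. PAM activity = RLU (Max-Min) ratio of test wells to control wells.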

T1 sequence (P36544 23-502): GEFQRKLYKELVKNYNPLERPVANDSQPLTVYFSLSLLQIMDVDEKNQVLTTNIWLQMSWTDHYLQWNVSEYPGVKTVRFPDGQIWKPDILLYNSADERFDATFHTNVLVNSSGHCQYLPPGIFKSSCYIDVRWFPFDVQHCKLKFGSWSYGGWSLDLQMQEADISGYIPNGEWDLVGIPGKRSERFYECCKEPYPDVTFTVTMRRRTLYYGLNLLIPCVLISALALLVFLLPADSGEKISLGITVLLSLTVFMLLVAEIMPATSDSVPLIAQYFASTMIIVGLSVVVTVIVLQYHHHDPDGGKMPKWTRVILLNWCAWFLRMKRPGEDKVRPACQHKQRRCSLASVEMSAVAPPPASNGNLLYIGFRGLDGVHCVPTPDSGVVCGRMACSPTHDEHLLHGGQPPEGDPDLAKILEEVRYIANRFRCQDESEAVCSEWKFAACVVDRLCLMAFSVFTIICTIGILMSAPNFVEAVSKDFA

With `O=C(NC1CCOCC1)[C@H]1CC[C@@H](n2cnc(-c3cccc(F)c3F)c2)CC1` [Example 358], the activity at 1 µM was determined as 126%.

`O=C(NC1CCOCC1)[C@H]1CC[C@@H](n2cnc(-c3cccc(F)c3)c2Cl)CC1` [Example 359]: the activity at 10 µM turned out to be 581%.

Turning to `O=C(NC1CCOCC1)[C@H]1CC[C@@H](n2cnc(-c3ccccc3F)c2Cl)CC1` [Example 360], the activity at 10 µM worked out at 598%.

Take `O=C(NC1COC1)[C@H]1CC[C@@H](n2cnc(-c3ccc(C(F)(F)F)cc3)c2Cl)CC1` [Example 361]: the activity at 10 µM was determined as 794%.

As to `O=C(NC1CCOCC1)[C@H]1CC[C@@H](n2cnc(-c3cccc(Cl)c3)c2Cl)CC1` [Example 362], the “PAM activity for α7 nAChR (in words)” value is reported as “stronger PAM activity than others”.

Consider `O=C(NC1CCOCC1)[C@H]1CC[C@@H](n2cnc(-c3ccc(Cl)cc3)c2Cl)CC1` [Example 363], for which the “PAM activity for α7 nAChR (in words)” value is “stronger PAM activity than others”.

Turning to `O=C(NC1COC1)[C@H]1CC[C@@H](n2cnc(-c3ccc(F)cc3)c2Cl)CC1` [Example 364], the activity at 10 µM worked out at 537%.

On to `O=C(NC1CCOC1)[C@H]1CC[C@@H](n2cnc(-c3ccc(F)cc3)c2Cl)CC1` (stereo partly shown) [Example 366], for which the activity at 10 µM was determined as 834%.

With `O=C(NC1CCOCC1)[C@H]1CC[C@@H](n2cnc(-c3cc(F)ccc3F)c2Cl)CC1` [Example 368], the activity at 10 µM came to 941%.

As for `O=C(NC1CCOCC1)[C@H]1CC[C@@H](n2cnc(-c3cccc(F)c3F)c2Cl)CC1` [Example 371], the activity at 10 µM came out at 962%.

In the case of `N#Cc1c(-c2ccc(F)cc2)ncn1[C@H]1CC[C@@H](C(=O)NC2CCOCC2)CC1` [Example 373], the activity at 10 µM is 966%.

For `N#Cc1c(-c2cc(F)ccc2F)ncn1[C@H]1CC[C@@H](C(=O)NC2CCOCC2)CC1` [Example 375], the activity at 10 µM amounted to 457%.

Regarding `N#Cc1c(-c2cc(F)cc(F)c2)ncn1[C@H]1CC[C@@H](C(=O)NC2CCOCC2)CC1` [Example 376], the activity at 10 µM is 426%.

`N#Cc1c(-c2ccc(C(F)(F)F)cc2)ncn1[C@H]1CC[C@@H](C(=O)NC2CCOCC2)CC1` [Example 377]: the activity at 10 µM is 988%.

Take `N#Cc1c(-c2ccc(OC(F)(F)F)cc2)ncn1[C@H]1CC[C@@H](C(=O)NC2CCOCC2)CC1` [Example 380]: the “PAM activity for α7 nAChR (in words)” value is “stronger PAM activity than others”.

In the case of `Cc1c(-c2ccc(F)cc2)ncn1[C@H]1CC[C@@H](C(=O)NC2CCOCC2)CC1` [Example 381], the activity at 10 µM worked out at 377%.

On to `O=C(NC1CCCCC1)N1[C@@H]2CC[C@H]1C[C@@H](n1cnc(-c3ccc(F)cc3)c1)C2` [Example 382], for which the activity at 10 µM turned out to be 222%.

In the case of `O=C(NC1CCCCC1)N1[C@@H]2CC[C@H]1C[C@@H](n1cnc(-c3ccccc3)c1)C2` [Example 383], the activity at 10 µM came to 598%.

For the molecule `O=C(NC1CCC(F)(F)CC1)N1[C@@H]2CC[C@H]1C[C@@H](n1cnc(-c3ccc(F)cc3F)c1)C2` [Example 384], the activity at 1 µM turned out to be 652%.

In the case of `O=C(NC1CCCCC1)N1[C@@H]2CC[C@H]1C[C@@H](n1cnc(-c3ccc(F)cc3F)c1)C2` [Example 385], the activity at 1 µM was determined as 218%.

As for `O=C(NC1CCC(F)(F)CC1)N1[C@@H]2CC[C@H]1C[C@@H](n1cnc(-c3cccc(F)c3F)c1)C2` [Example 386], the activity at 10 µM amounted to 880%.

`O=C(NC1CCCCC1)N1[C@@H]2CC[C@H]1C[C@@H](n1cnc(-c3cccc(F)c3F)c1)C2` [Example 387]: the activity at 1 µM is 315%.

For the molecule `O=C(NC1CCC(F)(F)CC1)N1[C@@H]2CC[C@H]1C[C@@H](n1cnc(-c3cc(F)ccc3F)c1)C2` [Example 388], the activity at 1 µM was determined as 335%.

Take `O=C(NC1CCCCC1)N1[C@@H]2CC[C@H]1C[C@@H](n1cnc(-c3cc(F)ccc3F)c1)C2` [Example 389]: the activity at 1 µM amounted to 163%.

Turning to `O=C(NC1CCCCC1)N1[C@@H]2CC[C@H]1C[C@@H](n1cnc(-c3ccc(F)cc3)c1Cl)C2` [Example 390], the activity at 10 µM was determined as 683%.
